Results from PMC7982595 (Frontiers in Pharmacology, 2021).
Counter-ions that a name gives are not always drawn. Like-named read-outs stand apart in the source and are kept apart here.

Experiments:
[1] = Determination of solubility in different solvents (shaken 24 h, HPLC); type: physicochemical; details: 25 °C, thermodynamic from solid, mean ± SD
Protocol: Then they were shaken for 24 h with 100 rpm at 25°C. At last, the supernatant was directly injected into HPLC after high speed centrifugation (3,000 rpm for 10 min).

[2] = 25°C; ref Marco-Contelles et al., 2005; Saigal et al., 2013; cited from earlier work
[3] = In vivo drug release / pharmacokinetics, plasma galantamine by HPLC-ESI-MS/MS; parameters: species or system Sprague-Dawley (SD) rats; AUC0-t / AUC0-∞: unit not given here; details: 24 mg/kg
Protocol: Healthy Sprague-Dawley (SD) rats weighing 200–210 g were supplied by the Experimental Animal Breeding Center of Jinan Pengyue Co., Ltd. (Jinan, China). Before the drug administration, all rats were fasted for 12 h. But they were free access to diet and water throughout the study ([Zhang et al., 2019]). This study conformed to the Guide for the Care and Use of Laboratory Animals.
The study groups were carried out with twelve rats, which were randomly divided into two groups each with six rats. […] The blood samples of both groups were obtained via the orbital venous plexus and collected into heparinized tubes before and after dosing at 1 h, 3 h, 6 h, 12 h, 1 day, 2 days, 3 days, 4 days, 6 days, 8 days, 10 days, 12 days, […], 16 days, 18 days, 20 days. Other eighteen rats were randomly divided into the placebo group, negative group and oral administration group of six rats each. The placebo group received […] microspheres suspension in diluent at a single dose of 20 mg/kg by i.m., and the blood samples of this group were obtained the same as group I. The negative group was also carried out without any treatment, and the blood samples of this group were obtained the same as group I. The oral administration group was performed with GLT-PM (24 mg/kg), which was infused to stomach of rats. The blood samples of oral administration group were obtained before and after dosing at 15 min, 30 min, 45 min, 1 h, 1.5 h, 2 h, 3 h, 4 h, 6 h, 8 h, 12 h, 24 h, 48 h, 72 h. All blood samples were centrifuged immediately at 4,500 rpm for 10 min, and the plasma samples were separated into EP tubes and stored at −80°C until analysis ([Jiang et al., 2014]; [Zhang et al., 2019]).
After thawing at room temperature, 50 μL plasma samples were separately added into a […] centrifuge tube with the addition of 150 μL of acetonitrile. This mixture was vortex mixed for 1 min and centrifuged at 12700 rpm for 10 min. Then 100 μL supernate was mixed with 100 μL deionized water, and they was injected into vials for analysis ([Zhang et al., 2019]).
AB Sciex QTrap 6,500 + triple-quadrupole tandem mass spectrometer (Applied Biosystem Inc., Foster City, Calif, United States) was connected to Waters Acquity UPLC H-Class HPLC system (Waters Inc., Milford, Massachusetts, United States) via electro-spray ionization (ESI) interface. LC separation was performed on a Waters BEH C8 column (2.1 × 50 mm I.D., 1.7 μm) with mobile phase A (1 mmol/L ammonium acetate solution) and phase B (mixture of acetonitrile and methanol, 4:1, v/v) at 40°C, which was used with gradient elution as shown in Table 2 ([Suresha et al., 2014]). Quantitative analyses were performed in positive ion mode on a 6500 Q-trap mass analyzer (AB Sciex, Framingham, MA) coupled with electrospray ion source. Multiple reaction monitoring (MRM) mode was used for the quantification with ion spray voltage set at 5500 V, curtain gas 35 psi, […], and the interface heater temperature 450°C. […]
The plasma concentration-time data were analyzed with non-compartmental model by Phoenix WinNonlin 8.1 software (Pharsight Corporation, United States) to obtain the pharmacokinetic parameters, which included the area under the plasma concentration-time curve (AUC), half-life (T1/2) and mean residence time (MRT). The maximum plasma drug concentration (Cmax) and the time required to reach Cmax (Tmax) were directly read from the plasma concentration-time data.

[4] = n = 3, read-out: Solubility, benzyl alcohol
[5] = n = 3, read-out: Solubility, deionized water
[6] = n = 3, read-out: Solubility, dichloromethane
[7] = n = 3, read-out: Solubility, methanol
[8] = Oral administration: rats, plasma galantamine
[9] = Sprague-Dawley, rat, plasma, po

Row | Structure (SMILES) | solubility at 24 h [1, 4] | solubility at 24 h [1, 5] | solubility at 24 h [1, 6] | solubility at 24 h [1, 7] | Solubility [2] | AUC0-t [3, 8] | AUC0-∞ [3, 8] | Cmax [3, 9] | Tmax [3, 9] | half-life [3, 9]
1 | COc1ccc2c3c1O[C@H]1C[C@@H](O)C=C[C@@]31CCN(C)C2 [Galantamine hydrobromide, reference compound] | 1570 ± 190 µg/mL | 4320 ± 370 µg/mL | 320 ± 30 µg/mL | 820 ± 90 µg/mL | 5170 µg/mL |  |  |  |  | 
2 | COc1ccc2c3c1O[C@H]1C[C@@H](O)C=C[C@@]31CCN(C)C2.COc1ccc2c3c1O[C@H]1C[C@@H](O)C=C[C@@]31CCN(C)C2.O=C(O)c1cc2ccccc2c(Cc2c(O)c(C(=O)O)cc3ccccc23)c1O [GLT-PM, galantamine pamoate] | 357300 ± 210 µg/mL | 200 ± 20 µg/mL | 8720 ± 520 µg/mL | 1010 ± 210 µg/mL |  | 532.54 ± 73.08 | 532.91 ± 72.92 | 119 ± 44.6 ng/mL | 0.96 h | 4.32 h
